Results published in US20200199230A1, “TREATMENT METHOD” (Hoffmann-La Roche Inc., priority 2017, published 2020).

Tests used:
[1] = test system: tumor inflammation-related adverse effects; conditions: preliminary data; confirmed PR and SD observed in patients given prophylaxis
[2] = test system: advanced CEA positive solid tumors; type: in vivo, human
Experimental: In S1, 80 patients (70 CRC) were treated at dose levels of 0.05-600 mg; in S2, 45 patients (35 CRC) at 5-160 mg (data cut-off 3 Mar. 2017). In addition biomarker analysis and PK assays were conducted.

[3] = design: species or system human; conditions: in vivo
Experimental: (§1) Methods: In 2 ongoing dose-escalation phase I studies, CEA-TCB is given as monotherapy IV QW (S1) or in combination (QW) with atezolizumab 1200 mg Q3W (S2) in patients with advanced CEA positive (≥20% of tumor cells expressing moderate or high) solid tumors. In S1, 80 patients (70 CRC) were treated at dose levels of 0.05-600 mg; in S2, 45 patients (35 CRC) at 5-160 mg (data cut-off 3 Mar. 2017). In addition biomarker analysis and PK assays were conducted.

intratumoral T cells = experiment: Biomarker analysis of on-treatment tumor biopsies; type: in vivo, human
Experimental: as §1

IL-6 = experiment: Biomarker analysis: IL-6 after administration; type: in vivo, human; conditions: most patients; after the first administration
Experimental: as §1

tumor cells = conditions: preclinically; increased intratumoral T-cell infiltration and activation, T-cell-mediated tumor cell killing, PD-L1/PD-1 upregulation; cited from earlier work

Molecule	effect of prophylactic steroid doses on anti-tumor activity of CEA-TCB monotherapy or combination with atezolizumab [1]	tumor reduction of −10% to −30% (stable disease), share of patients ([2]; S1 monotherapy, doses ≥60 mg, MSS CRC patients, 4 patients) [%]	confirmed partial response (PR; RECIST v1.1), share of CRC patients ([2]; S1 monotherapy, doses ≥60 mg, two of 31 evaluable CRC patients, both MSS) [%]	metabolic PR (FDG PET; EORTC criteria), share of CRC patients ([2]; S1 monotherapy, weeks 4-6, 9 patients) [%]	MTD (maximum tolerated dose) ([2]; human, in vivo, iv) [mg]	patients with dose limiting toxicities (DLTs) ([2]; in vivo)	related adverse event: diarrhea ([2]; in vivo) [%]	related adverse event: infusion-related reactions (IRRs) ([2]; in vivo) [%]	related adverse event: pyrexia ([2]; in vivo) [%]	antitumor activity in advanced CRC ([2]; monotherapy, during dose escalation)	effect of ADA on drug clearance ([3]; human)	PK linearity [3]	increase in Ki67+ T cells as compared to baseline (intratumoral T cells; S1, doses ≥60 mg, OT biopsies, P=0.035, without dose-dependence) [fold]	intratumoral CD8 T cells (intratumoral T cells; on-treatment)	IL-6 change (IL-6)	preclinical antitumor activity (tumor cells)
C[C@]12C=CC(=O)C=C1CC[C@@H]1[C@@H]2C(=O)C[C@@]2(C)[C@H]1CC[C@]2(O)C(=O)CO [prednisone]	did not impair the anti-tumor activity															
CEA-TCB: novel T-cell bispecific antibody targeting CEA on tumor cells and CD3 on T cells; polypeptides of SEQ ID NO: 25-28		13	6	29	< 600	Five	40	55	58	Evidence of antitumor activity	ADA increase CEA-TCB drug clearance	almost linear PK	3.6	On-treatment increases	increases in IL-6	potent antitumor activity
